Drawing on ChEMBL document CHEMBL1159030, “Plant anticancer agents, L. cytotoxic triterpenes from Sandoricum koetjape stems” (1992), this text covers EC50 and Activity for 6 compounds.

≈ marks a conversion by molar mass, not a printed value. Calls of active or inactive are those of the source. The rule behind the calls is not given here.

One assay deals with P388. Nature of the assay: Cytotoxicity against mouse P388 cells. The class given is functional. Conditions: read-out: ED50 (the source's name).
The next assay has as its system SK-MEL-2. Nature of the assay: Cytotoxicity against human SK-MEL-2 cells. The assay is classed as functional. Conditions: read-out: ED50 (the source's name).
Assay [1] in a line: Cytotoxicity against human BC1 cells. Conditions: read-out: ED50 (the source's name). The assay is classed as functional.
Another assay has as its system LNCaP. Nature of the assay: Cytotoxicity against human LNCAP cells. The class given is functional. As to conditions: read-out: ED50 (the source's name).
A further assay relates to ZR-75-1. Nature of the assay: Cytotoxicity against human ZR-75-1 cells. The class given is functional. As to conditions: read-out: ED50 (the source's name).
Another assay deals with HT-1080. Nature of the assay: Cytotoxicity against human HT1080 cells. The class given is functional. As to conditions: read-out: ED50 (the source's name).
The subject of a further assay is ASK. Nature of the assay: Antimitotic activity in rat ASK cells at 0.32 to 20 ug/mL. The class given is functional, cell-based.
Another assay relates to Col2. Nature of the assay: Cytotoxicity against human Col2 cells. The assay is classed as functional. Conditions: read-out: ED50 (the source's name).
A further assay relates to Lu1. Nature of the assay: Cytotoxicity against human Lu1 cells. The class given is functional. As to conditions: read-out: ED50 (the source's name).
Another assay concerns A-431. The assay is described as follows: Cytotoxicity against human A431 cells. As to conditions: read-out: ED50 (the source's name). The assay is classed as functional.
The next assay deals with KB. Nature of the assay: Cytotoxicity against human KB cells. The assay is classed as functional. As to conditions: read-out: ED50 (the source's name).
A short description of assay [2]: Cytotoxicity against human vinblastine-resistant KBV1 cells. Conditions: KB-V1, read-out: ED50 (the source's name). The class given is functional.

As for `C=C1CC[C@@H]2O[C@]2(C)CC[C@@H]2[C@@H]1CC2(C)C`, the EC50 (in the assay on P388; with SK-MEL-2; in [1]; with LNCaP; with ZR-75-1; with HT-1080) was more than 20 mg/L throughout. The EC50 (in the assay with Col2; with Lu1; in the assay on A-431; in the assay on KB; in assay [2]) was more than 20 mg/L in each case. The result in the assay on ASK was inactive.
`CC1(C)C(=O)CC[C@]2(C)[C@H]3CC=C4[C@@H]5C[C@](C)(C(=O)O)CC[C@]5(C)CC[C@@]4(C)[C@]3(C)CC[C@@H]12`: the EC50 with P388 was 0.61 mg/L (≈ 1.34 µM); in the assay on SK-MEL-2, 12 mg/L (≈ 26.4 µM); in assay [1] it was more than 20 mg/L; with LNCaP it was 10 mg/L (≈ 22 µM); in the assay on ZR-75-1 it was 5.2 mg/L (≈ 11.4 µM); with HT-1080, more than 20 mg/L. Moreover, the EC50 in the assay with Col2 was more than 20 mg/L; in the assay with Lu1, 10 mg/L (≈ 22 µM); in the assay on A-431, more than 20 mg/L; in the assay on KB, 4.9 mg/L (≈ 10.8 µM); in assay [2], 8.5 mg/L (≈ 18.7 µM).
On to `C=C1CC[C@@H]2[C@H]([C@H]3[C@@H](C)CC[C@@H]13)C2(C)C`, for which the EC50 (in the assay on P388; with SK-MEL-2; in [1]; in the assay on LNCaP; with ZR-75-1; in the assay with HT-1080) was more than 20 mg/L in each case. Further, the EC50 (in the assay on Col2; in the assay on Lu1; in the assay with A-431; in the assay on KB; in [2]) was more than 20 mg/L in each case. Also, the outcome in the assay on ASK was inactive.
Consider `CC1(C)[C@H](O)CC[C@]2(C)[C@H]3CC=C4[C@@H]5C[C@](C)(C(=O)O)CC[C@]5(C)CC[C@@]4(C)[C@]3(C)CC[C@@H]12` [KATONIC ACID], for which the EC50 with P388 amounted to 0.11 mg/L (≈ 0.241 µM); with SK-MEL-2, 12 mg/L (≈ 26.3 µM); in assay [1], 7.8 mg/L (≈ 17.1 µM); in the assay on LNCaP it was 10 mg/L (≈ 21.9 µM); with ZR-75-1 it was 2.2 mg/L (≈ 4.82 µM); in the assay on HT-1080 it was 19 mg/L (≈ 41.6 µM). Further, the EC50 with Col2 is more than 20 mg/L; in the assay with Lu1, 11 mg/L (≈ 24.1 µM); with A-431, 12 mg/L (≈ 26.3 µM); in the assay with KB it was 8.3 mg/L (≈ 18.2 µM); in assay [2], 15 mg/L (≈ 32.8 µM).
Consider `C=C(C)[C@@H]1CC[C@]2(C)[C@H](CC=C3[C@@H]4C[C@@](C)(C(=O)O)CC[C@]4(C)CC[C@]32C)[C@@]1(C)CCC(=O)O` [KOETJAPIC ACID], for which the EC50 (with P388; with SK-MEL-2; in [1]; with LNCaP; with ZR-75-1; in the assay on HT-1080) was more than 20 mg/L throughout. Further, the EC50 (in the assay with Col2; in the assay on Lu1; with A-431; in the assay on KB; in [2]) was more than 20 mg/L throughout. Moreover, the result in the assay on ASK was inactive.
As for `C=C1CC[C@@H]2[C@H]([C@H]3[C@H]1CC[C@]3(C)O)C2(C)C` [SPATHULENOL], the EC50 (in the assay with P388; in the assay on SK-MEL-2; in assay [1]; in the assay on LNCaP; in the assay on ZR-75-1; with HT-1080) was more than 20 mg/L throughout. The EC50 (in the assay with Col2; in the assay with Lu1; with A-431; with KB; in assay [2]) was more than 20 mg/L each time. For the same compound, the result in the assay on ASK was inactive.
